Entries after “also recorded” stand apart in the source; their conditions may differ.
What was measured:
[1] = system: zinc-dependent Aβ-degrading enzymes (ACE, ECE, NEP) in M1-4HSC lysates; test: Inhibition by EGTA of Aβ40/42 degradation in M1-4HSC lysates; format: biochemical; conditions: 5 mM EGTA; 30 and 60 minutes
Method: To quantify the Aβ42-degading ability of M1-4HSC lysate's, cell lysates from M1-4HSC (50,000 cells/ml) were obtained by 2 freezing thawing cycles at −80° C. and centrifugation for 10 min at 20,000 g.
To confirm that the disappearance of Aβ from HSC lysates reflects its enzymatic degradation rather than non-specific loss that can occur in cell lysates the activity of zinc-dependent AR-degrading enzymes comprising angiotensin converting enzyme (ACE) and endothelin converting enzyme (ECE) known to be present in HSC1 as well as NEP was blocked by 5 mM EGTA (white bars in FIG. 1D and FIG. 1E).

Primary murine HSC = test: Inhibition of Aβ40 and 42 degradation by HSC in response to sacubitrilat (ELISA of supernatant); format: cell-based; conditions: 48 h, with vs. without LBQ657
Method: FIG. 9 (A-B) shown an inhibition of Aβ40 and 42 degradation by HSC in response to sacubitrilat (LBQ657). Primary murine HSC were incubated with 1000 pg/ml Aβ40 or 42 with and without LBQ657. The content of Aβ in the cell culture supernatant was measured by ELISA 48 h after incubation with Aβ40 or 42 with and without LBQ657.

Col-1 in M1-4HSC = test: Col-1 production in M1-4HSC treated with Aβ (ELISA); format: cell-based; conditions: M1-4HSC culture
M1-4HSC lysates = test: Degradation of Aβ42 and Aβ40 by M1-4HSC lysates (ELISA); format: in vitro ADME; conditions: for Degradation by M1-4HSC lysates: 1000 pg/ml, normalized to control without cells
TGF-β in M1-4HSC = test: TGF-β level in M1-4HSC treated with Aβ (Western blot, densitometry); format: cell-based; conditions: for Expression of TGF-β: Western blot; for Intensity of TGF-β bands (55 kDa, 44 kDa, 23 kDa) adjusted to GAPDH: densitometric calculations vs. untreated ctrl.
Excerpt: (§1) The data are shown as means±SEM, *p<0.05, ***p<0.001.

α-SMA in M1-4HSC = test: α-SMA level in M1-4HSC treated with Aβ (Western blot); format: cell-based; conditions: 1000 pg/ml
Excerpt: as §1

[2] = system: eNOS in hSEC (human liver endothelial cells); test: eNOS synthesis by hSEC treated with Aβ (ELISA); format: cell-based
Excerpt: Means±SEM, *p<0.05, **p<0.01, ***p<0.001.

[3] = system: astroglial primary cultures (APC); test: Aβ42 uptake from culture medium by astroglial primary cultures (ELISA of supernatant); format: cell-based, mouse; conditions: astrocytes (APC); 1000 pg/ml Aβ42 in medium; 48 h of incubation
Method: Astroglia-rich primary cultures (APC) were prepared from newborn C57/BL6 (Charles River) mouse brains as described elsewhere (Lourhmati A, Buniatian G H, Paul C, et al. Age-dependent astroglial vulnerability to hypoxia and glutamate: the role for erythropoietin. PLoS One 2013; 8:e77182.). Briefly, the cells obtained from 5-7 brains of newborn littermates were mechanically dissociated, centrifuged and plated onto cell culture flasks (1×10^6 cells/75 cm2) in DMEM with 4.5 g/l Glucose supplemented with 10% foetal calf serum, 100 μg/ml streptomycin sulphate, 100 units/ml penicillin G and […] (Biochrom AG, Berlin, Germany) in a humidified 10% CO2 atmosphere at 37° C.
(§2) After 24 h, supernatant was centrifuged at 1500 g for 15 minutes and frozen at −80° C. until analysis.
(§3) Therefore, as a control for inherent decrease of amyloid concentrations control samples containing only culture medium, without cells (w/c) were incubated with Aβ for the same periods of time.

M1-4HSC = test: Aβ42 uptake from culture medium by M1-4HSC (ELISA of supernatant); format: cell-based
Method: as §2, §3

HSC-T6 = test: Aβ42 uptake from culture medium by HSC-T6 (ELISA of supernatant); format: cell-based, rat
Method: as §2, §3

LX-2 = test: Aβ42 uptake from culture medium by LX-2 (ELISA of supernatant); format: cell-based, human; conditions: 50,000-200,000 cells
Method: as §2

[4] = Loss of Aβ in cell culture medium without cells (control samples); format: physicochemical
Method: as §3

[5] = system: VEGF in liver sinusoidal endothelial cells; test: VEGF expression in liver sinusoidal endothelial cells exposed to Aβ; format: cell-based
[6] = after 30 minutes of incubation with M1-4HSC lysates

Compound	Col-1 production (in words) (Col-1 in M1-4HSC)	Level compared to the initial level in control samples without cell lysates (M1-4HSC lysates; [6]) [%]	Degradation by M1-4HSC lysates (M1-4HSC lysates; after 30 minutes) [%]	Expression of TGF-β (TGF-β in M1-4HSC)	Intensity of TGF-β bands (55 kDa, 44 kDa, 23 kDa) adjusted to GAPDH (TGF-β in M1-4HSC)	Expression of α-SMA (α-SMA in M1-4HSC)	eNOS synthesis [2]	further results
O=C(O)CN(CCOCCOCCN(CC(=O)O)CC(=O)O)CC(=O)O [EGTA]								Effect on degradation of Aβ40/42 by M1-4HSC lysates [1]: dramatically inhibited; also recorded: abolished the degradation
C[C@H](C[C@@H](Cc1ccc(-c2ccccc2)cc1)NC(=O)CCC(=O)O)C(=O)O [LBQ657, Sacubitrilat]								Aβ40 degradation by HSC (content of Aβ in supernatant) (Primary murine HSC; 1000 pg/ml Aβ40): Decreased degradation of Aβ; Aβ42 degradation by HSC (content of Aβ in supernatant) (Primary murine HSC; 1000 pg/ml Aβ42): Decreased degradation of Aβ
amyloid beta 40 [Aβ40]	only a slight reduction	50	50	reduced the expression	capable of decreasing only the 44 kDa band	reduced the expression		Level compared to the initial level in control samples without cell lysates (M1-4HSC lysates; after 60 minutes of incubation with M1-4HSC lysates): 25%; Degradation by M1-4HSC lysates (M1-4HSC lysates; after 60 minutes): 75%
amyloid beta 42 [Aβ42]	suppression of Col-1 production	50	50	reduced the expression	significantly decreased intensity	reduced the expression	upregulation of eNOS synthesis	Aβ42 internalized by cells, of the remaining part available in culture medium [3]: 28%; Suppression of TGF-β synthesis, Aβ42 compared with Aβ40 (TGF-β in M1-4HSC): more potent than Aβ40; Uptake of Aβ42 vs. APC (decrease in cell culture supernatant) (M1-4HSC; M1-4HSC vs. APC, ELISA): two-fold higher uptake; Aβ42 internalized by cells, of the remaining part available in culture medium (M1-4HSC; M1-4HSC, 1000 pg/ml Aβ42 in medium, 48 h of incubation): 55%; Uptake of Aβ42 vs. APC (decrease in cell culture supernatant) (HSC-T6): two-fold higher uptake; Amount of Aβ42 internalized by LX-2 (LX-2): grew with increasing number of cells in culture; Peptide absorbed on plastic carrier ([4]; from 1000 pg/ml Aβ42 in culture medium, after 48 h of incubation): about 50%
amyloid beta [Aβ]							increased synthesis of eNOS	Loss of Aβ after incubation with cell culture medium in the absence of cells ([4]; 24-48 h, data not shown): over 50%; Expression of liver permeability marker VEGF [5]: increase in expression

Source: patent US20220088130A1, “COMPOUNDS AND METHODS FOR TREATING LIVER DISEASES” (Eberhard Karls Universität Tübingen Medizinische Fakultät, priority 2019, published 2022)
